Here are results for 1 compound from article PMC7180948, “New Insights into 4-Anilinoquinazolines as Inhibitors of Cardiac Troponin I–Interacting Kinase (TNNi3K)” (Molecules, 2020).

Holding throughout (assay): biochemical
Common to all, as to design: KINOMEscan competition binding panel (Eurofins DiscoverX), single concentration, % inhibition
Settings in all cases: read-out: 7 at 1 µM % inhibition

Assay [1] concerns the target AXL (Homo sapiens, UniProt P30530). The procedure, abridged:
(§1)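 Selectivity profile from a KINOMEscan run against >400 human kinases; test concentration 1 µM.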

Assay [2] concerns the target DDR1 (Homo sapiens, UniProt Q08345). Summed up: as §1
For assay [3], the target named is EPHA1 (Homo sapiens, UniProt P21709). The procedure, abridged: as §1
For assay [4], the target named is EPHB2 (Homo sapiens, UniProt P29323). Summed up: as §1
Assay [5] concerns the target ERN1 (Homo sapiens, UniProt O75460). The procedure, abridged:
as §1

Assay [6] addresses T1, FAK (Homo sapiens, UniProt Q05397).
T1 construct: gene PTK2
Summed up: as §1

Assay [7] deals with FLT3 (Homo sapiens, UniProt P36888). Summed up: as §1
Assay [8] concerns the target GRK2 (Homo sapiens, UniProt P25098). Summed up: as §1
Assay [9] addresses T2, IKK-epsilon (Homo sapiens, UniProt Q14164).
T2 construct: gene IKBKE
Summed up: as §1

Assay [10] addresses T3, MEK4 (Homo sapiens, UniProt P45985).
T3 construct: gene MAP2K4
Summed up: as §1

Assay [11] addresses MET(Y1235D) (Homo sapiens, UniProt P08581, Y1235D). Summed up: as §1
Assay [12] concerns the target T4, MINK (Homo sapiens, UniProt Q8N4C8).
T4 construct: gene MINK1
The procedure, abridged: as §1

The target in assay [13] is MKNK1 (Homo sapiens, UniProt Q9BUB5). The procedure, abridged: as §1
The target in assay [14] is NEK1 (Homo sapiens, UniProt Q96PY6). The procedure, abridged: as §1
Assay [15] addresses T5, PCTK3 (Homo sapiens, UniProt Q07002).
T5 construct: gene CDK18
Summed up: as §1

The target in assay [16] is PHKG1 (Homo sapiens, UniProt Q16816). The procedure, abridged:
as §1

Assay [17] addresses PRKD3 (Homo sapiens, UniProt O94806). The procedure, abridged: as §1
In assay [18] the target is T6, PYK2 (Homo sapiens, UniProt Q14289).
T6 construct: gene PTK2B
Summed up:
as §1

For assay [19], the target named is RIPK1 (Homo sapiens, UniProt Q13546). Summed up: as §1
The target in assay [20] is T7, RPS6KA5(Kin.Dom.1-N-terminal) (Homo sapiens, UniProt O75582).
T7 construct: Kin.Dom.1-N-terminal
Summed up: as §1

For assay [21], the target named is T8, TRKA (Homo sapiens, UniProt P04629).
T8 construct: gene NTRK1
The procedure, abridged:
as §1

Assay [22] deals with TYRO3 (Homo sapiens, UniProt Q06418). Summed up:
as §1

Assay [23] concerns the target WEE2 (Homo sapiens, UniProt P0C1S8). The procedure, abridged:
as §1

Assay [24] deals with T9, YSK1 (Homo sapiens, UniProt O00506).
T9 construct: gene STK25
The procedure, abridged: as §1

The structures appear in SMILES notation.

T3 sequence (P45985 whole entry): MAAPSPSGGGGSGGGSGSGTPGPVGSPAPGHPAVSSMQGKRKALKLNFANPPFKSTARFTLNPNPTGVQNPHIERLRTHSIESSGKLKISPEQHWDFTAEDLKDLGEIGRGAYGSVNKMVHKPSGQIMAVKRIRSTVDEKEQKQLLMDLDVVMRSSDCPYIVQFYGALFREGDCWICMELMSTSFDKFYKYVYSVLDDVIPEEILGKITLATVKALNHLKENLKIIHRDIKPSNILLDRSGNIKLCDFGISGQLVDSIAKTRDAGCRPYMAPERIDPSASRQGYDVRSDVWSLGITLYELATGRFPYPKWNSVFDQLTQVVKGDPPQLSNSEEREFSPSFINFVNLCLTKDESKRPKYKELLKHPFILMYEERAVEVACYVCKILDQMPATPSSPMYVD
PRKD3, sequence (O94806 whole entry): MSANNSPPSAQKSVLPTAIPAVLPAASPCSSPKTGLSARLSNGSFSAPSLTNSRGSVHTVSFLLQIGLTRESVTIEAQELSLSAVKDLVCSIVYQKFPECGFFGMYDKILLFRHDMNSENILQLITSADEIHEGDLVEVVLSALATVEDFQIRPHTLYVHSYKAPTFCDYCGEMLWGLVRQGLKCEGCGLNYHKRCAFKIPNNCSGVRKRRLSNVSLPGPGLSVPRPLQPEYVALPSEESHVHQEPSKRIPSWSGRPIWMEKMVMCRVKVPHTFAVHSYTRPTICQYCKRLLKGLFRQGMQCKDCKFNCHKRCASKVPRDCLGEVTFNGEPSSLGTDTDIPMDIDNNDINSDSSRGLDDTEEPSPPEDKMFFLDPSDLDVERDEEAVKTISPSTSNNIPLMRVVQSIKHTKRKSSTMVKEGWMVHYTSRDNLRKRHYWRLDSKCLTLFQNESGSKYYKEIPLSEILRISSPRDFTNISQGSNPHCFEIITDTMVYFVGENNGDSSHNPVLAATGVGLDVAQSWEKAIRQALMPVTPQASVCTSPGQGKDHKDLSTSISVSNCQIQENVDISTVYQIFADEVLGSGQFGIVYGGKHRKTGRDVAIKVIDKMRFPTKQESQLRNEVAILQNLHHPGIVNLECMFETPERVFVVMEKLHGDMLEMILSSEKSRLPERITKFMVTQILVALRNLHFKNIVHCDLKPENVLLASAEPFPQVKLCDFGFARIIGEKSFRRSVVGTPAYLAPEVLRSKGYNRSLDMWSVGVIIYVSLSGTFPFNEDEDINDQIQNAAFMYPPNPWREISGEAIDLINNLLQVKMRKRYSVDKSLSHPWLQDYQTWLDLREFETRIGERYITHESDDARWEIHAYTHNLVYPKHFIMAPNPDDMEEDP
EPHB2, sequence (P29323 whole entry): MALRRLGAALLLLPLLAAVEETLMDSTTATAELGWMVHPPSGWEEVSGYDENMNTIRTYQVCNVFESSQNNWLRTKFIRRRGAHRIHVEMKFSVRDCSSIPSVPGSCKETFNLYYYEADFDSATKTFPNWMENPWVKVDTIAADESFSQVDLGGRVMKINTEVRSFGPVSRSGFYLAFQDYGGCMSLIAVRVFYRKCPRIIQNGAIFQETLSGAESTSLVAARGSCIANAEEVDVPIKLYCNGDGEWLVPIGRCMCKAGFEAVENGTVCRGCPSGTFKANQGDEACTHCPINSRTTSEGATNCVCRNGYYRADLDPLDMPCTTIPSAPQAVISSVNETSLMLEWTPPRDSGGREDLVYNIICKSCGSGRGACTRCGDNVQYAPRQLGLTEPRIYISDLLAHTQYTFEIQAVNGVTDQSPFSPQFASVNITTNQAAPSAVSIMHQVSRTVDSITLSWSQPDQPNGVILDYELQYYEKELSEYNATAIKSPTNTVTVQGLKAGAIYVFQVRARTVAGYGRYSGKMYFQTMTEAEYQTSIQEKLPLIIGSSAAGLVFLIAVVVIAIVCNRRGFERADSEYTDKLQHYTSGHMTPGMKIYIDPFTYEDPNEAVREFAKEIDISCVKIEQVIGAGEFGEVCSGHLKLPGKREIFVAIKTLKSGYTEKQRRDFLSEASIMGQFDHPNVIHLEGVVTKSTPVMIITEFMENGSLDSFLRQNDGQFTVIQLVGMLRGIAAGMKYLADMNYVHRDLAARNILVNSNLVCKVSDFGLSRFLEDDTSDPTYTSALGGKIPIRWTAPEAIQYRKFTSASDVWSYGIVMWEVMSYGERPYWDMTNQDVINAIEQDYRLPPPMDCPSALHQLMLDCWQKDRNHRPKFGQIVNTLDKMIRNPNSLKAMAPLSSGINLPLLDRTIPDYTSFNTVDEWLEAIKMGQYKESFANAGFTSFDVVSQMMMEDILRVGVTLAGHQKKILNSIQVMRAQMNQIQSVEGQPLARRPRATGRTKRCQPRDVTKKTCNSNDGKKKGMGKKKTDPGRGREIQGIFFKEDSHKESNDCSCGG
RIPK1, sequence (Q13546 whole entry): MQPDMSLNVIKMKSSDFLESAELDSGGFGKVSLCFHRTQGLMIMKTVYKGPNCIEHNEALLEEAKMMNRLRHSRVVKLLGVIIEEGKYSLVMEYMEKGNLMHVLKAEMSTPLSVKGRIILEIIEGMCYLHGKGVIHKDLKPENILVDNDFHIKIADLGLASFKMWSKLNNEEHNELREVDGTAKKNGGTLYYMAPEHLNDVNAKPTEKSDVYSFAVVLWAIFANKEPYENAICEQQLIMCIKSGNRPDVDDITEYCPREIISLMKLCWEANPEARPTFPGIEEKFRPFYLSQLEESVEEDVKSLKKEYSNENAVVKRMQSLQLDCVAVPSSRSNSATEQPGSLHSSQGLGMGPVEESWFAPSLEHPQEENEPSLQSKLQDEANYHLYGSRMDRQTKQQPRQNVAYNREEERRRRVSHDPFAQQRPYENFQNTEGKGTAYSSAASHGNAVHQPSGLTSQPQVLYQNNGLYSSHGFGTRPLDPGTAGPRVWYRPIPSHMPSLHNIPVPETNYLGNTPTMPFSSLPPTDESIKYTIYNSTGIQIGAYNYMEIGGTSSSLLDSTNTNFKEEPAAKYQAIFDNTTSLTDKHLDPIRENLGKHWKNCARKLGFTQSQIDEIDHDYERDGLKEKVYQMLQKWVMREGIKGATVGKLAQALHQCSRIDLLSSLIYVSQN
FLT3, sequence (P36888 whole entry): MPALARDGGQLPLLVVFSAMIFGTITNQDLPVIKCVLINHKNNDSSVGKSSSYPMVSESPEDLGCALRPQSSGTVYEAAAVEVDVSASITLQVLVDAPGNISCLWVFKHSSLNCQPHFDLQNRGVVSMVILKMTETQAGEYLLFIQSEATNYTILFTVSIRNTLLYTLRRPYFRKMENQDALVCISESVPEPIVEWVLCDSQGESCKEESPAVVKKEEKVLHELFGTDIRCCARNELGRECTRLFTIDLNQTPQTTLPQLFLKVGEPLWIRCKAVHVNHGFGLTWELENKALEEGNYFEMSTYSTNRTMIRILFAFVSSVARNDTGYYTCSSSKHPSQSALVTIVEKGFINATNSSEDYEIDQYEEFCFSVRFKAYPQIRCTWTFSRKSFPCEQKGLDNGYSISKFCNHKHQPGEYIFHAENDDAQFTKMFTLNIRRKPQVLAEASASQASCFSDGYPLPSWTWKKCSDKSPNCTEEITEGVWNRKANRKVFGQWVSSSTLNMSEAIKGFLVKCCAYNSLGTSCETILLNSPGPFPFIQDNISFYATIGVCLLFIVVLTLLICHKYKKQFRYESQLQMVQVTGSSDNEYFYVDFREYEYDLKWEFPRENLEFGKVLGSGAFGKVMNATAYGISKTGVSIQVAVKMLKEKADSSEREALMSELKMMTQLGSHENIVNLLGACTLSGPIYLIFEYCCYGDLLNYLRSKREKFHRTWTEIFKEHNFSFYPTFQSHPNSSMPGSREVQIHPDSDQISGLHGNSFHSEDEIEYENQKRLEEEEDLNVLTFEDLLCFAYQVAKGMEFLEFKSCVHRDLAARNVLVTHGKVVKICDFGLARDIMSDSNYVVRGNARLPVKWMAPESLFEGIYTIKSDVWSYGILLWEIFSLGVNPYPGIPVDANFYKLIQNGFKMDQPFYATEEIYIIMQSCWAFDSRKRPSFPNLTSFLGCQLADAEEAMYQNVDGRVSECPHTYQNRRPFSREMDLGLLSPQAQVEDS
MKNK1, sequence (Q9BUB5 whole entry): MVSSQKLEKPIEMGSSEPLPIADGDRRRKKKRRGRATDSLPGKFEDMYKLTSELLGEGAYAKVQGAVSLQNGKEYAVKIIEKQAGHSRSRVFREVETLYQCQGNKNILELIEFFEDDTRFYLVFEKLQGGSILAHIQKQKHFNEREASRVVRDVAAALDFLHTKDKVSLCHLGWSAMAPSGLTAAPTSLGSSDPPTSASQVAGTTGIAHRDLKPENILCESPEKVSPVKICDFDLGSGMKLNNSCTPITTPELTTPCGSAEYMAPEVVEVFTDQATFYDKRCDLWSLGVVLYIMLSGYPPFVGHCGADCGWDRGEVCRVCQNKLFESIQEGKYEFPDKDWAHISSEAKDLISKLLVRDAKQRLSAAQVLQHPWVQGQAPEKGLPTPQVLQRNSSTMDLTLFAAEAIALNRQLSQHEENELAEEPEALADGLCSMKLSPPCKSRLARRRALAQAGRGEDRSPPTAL
WEE2, sequence (P0C1S8 whole entry): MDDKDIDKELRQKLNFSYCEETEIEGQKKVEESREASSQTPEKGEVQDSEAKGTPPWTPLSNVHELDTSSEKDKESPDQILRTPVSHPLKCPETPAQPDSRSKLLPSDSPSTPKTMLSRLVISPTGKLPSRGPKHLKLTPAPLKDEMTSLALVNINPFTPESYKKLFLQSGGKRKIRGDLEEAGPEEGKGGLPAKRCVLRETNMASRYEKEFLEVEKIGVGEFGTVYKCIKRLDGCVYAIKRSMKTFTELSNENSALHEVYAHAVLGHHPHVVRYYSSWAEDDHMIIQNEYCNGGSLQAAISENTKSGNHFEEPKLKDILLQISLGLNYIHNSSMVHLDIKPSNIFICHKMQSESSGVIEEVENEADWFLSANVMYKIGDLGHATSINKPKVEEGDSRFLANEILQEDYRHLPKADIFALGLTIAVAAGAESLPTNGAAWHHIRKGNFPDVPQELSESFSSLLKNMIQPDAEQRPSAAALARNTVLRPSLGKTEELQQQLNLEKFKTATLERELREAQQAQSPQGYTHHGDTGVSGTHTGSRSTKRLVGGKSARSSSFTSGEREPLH

On to `CNS(=O)(=O)c1ccc(N(C)C)c(Nc2ncnc3cc(OC)c(OC)cc23)c1` [compound 7, 3-((6,7-dimethoxyquinazolin-4-yl)amino)-4-(dimethylamino)-N-methylbenzenesulfonamide], for which the inhibition (in general, the relative decrease from the control value, in per cent) at 1 µM was 12% in [1]; 0% in [2]; 0% in assay [3]; 0% in assay [4]; 0% in assay [5]; 8% in assay [6]. Also, the inhibition at 1 µM turned out to be 7% in [7]; 65% in assay [8]; 18% in assay [9]; 37% in [10]; 33% in assay [11]; 18% in [12]. Besides, the inhibition at 1 µM in assay [13] came out at 10%; in assay [14], 0%; in [15] it was 0%; in assay [16] it was 0%; in [17] it was 7%; in assay [18] it was 0%. The inhibition at 1 µM in assay [19] amounted to 0%; in assay [20] it was 7%; in assay [21], 22%; in assay [22] it was 0%; in [23] it was 0%; in assay [24] it was 5%.
